Measured values reported in article PMC3665348 (Biochemical pharmacology, 2012).

Biological target: T1, CYP1A1 (Homo sapiens, UniProt P04798)
T1 sequence (P04798 1-512): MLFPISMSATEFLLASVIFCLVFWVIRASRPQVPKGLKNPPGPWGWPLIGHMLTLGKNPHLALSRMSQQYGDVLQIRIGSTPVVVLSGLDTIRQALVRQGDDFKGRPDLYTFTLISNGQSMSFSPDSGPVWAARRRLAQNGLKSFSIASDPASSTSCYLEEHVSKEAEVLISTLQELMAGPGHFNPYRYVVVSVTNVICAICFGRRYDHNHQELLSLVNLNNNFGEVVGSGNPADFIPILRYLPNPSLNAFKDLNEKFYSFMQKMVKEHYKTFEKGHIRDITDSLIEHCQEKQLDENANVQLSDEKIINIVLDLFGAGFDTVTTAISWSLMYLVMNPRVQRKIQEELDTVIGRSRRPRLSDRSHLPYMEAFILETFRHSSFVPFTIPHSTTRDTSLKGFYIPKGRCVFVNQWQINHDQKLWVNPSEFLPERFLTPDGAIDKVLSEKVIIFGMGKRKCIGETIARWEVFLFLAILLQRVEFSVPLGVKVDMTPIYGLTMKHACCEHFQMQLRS
Assay: procainamide hydroxylamine
Assay type: biochemical
Conditions: 20 μM procainamide, NADPH 2 mM, MgCl2 2 mM, 20 mM PBS pH 7.4, 37°C, 30 min

CCN(CC)CCNC(=O)c1ccc(N)cc1 [I, Procainamide]
procainamide hydroxylamine (VI) formation, UPLC-ESI-QTOFMS: CYP1A1 also had some activity.
